Experimental data taken from ChEMBL document CHEMBL1149853, “Cannabinoid ester constituents from high-potency Cannabis sativa” (J Nat Prod, 2008).
≈ marks a conversion by molar mass, not a printed value. Calls of active or inactive are those of the source. No cut-off for these calls is given here.

Experiments:
Plasmodium falciparum [1] = test: Antimicrobial activity against Plasmodium falciparum W2; type: functional, organism-based
Candida albicans = test: Antimicrobial activity against Candida albicans ATCC 90028; type: functional, organism-based
[2] = biological target: Cannabinoid receptor 1 (Homo sapiens) (UniProt P21554); test: Binding affinity to CB1 receptor
Cannabinoid receptor 1 (Homo sapiens), sequence (P21554 whole entry): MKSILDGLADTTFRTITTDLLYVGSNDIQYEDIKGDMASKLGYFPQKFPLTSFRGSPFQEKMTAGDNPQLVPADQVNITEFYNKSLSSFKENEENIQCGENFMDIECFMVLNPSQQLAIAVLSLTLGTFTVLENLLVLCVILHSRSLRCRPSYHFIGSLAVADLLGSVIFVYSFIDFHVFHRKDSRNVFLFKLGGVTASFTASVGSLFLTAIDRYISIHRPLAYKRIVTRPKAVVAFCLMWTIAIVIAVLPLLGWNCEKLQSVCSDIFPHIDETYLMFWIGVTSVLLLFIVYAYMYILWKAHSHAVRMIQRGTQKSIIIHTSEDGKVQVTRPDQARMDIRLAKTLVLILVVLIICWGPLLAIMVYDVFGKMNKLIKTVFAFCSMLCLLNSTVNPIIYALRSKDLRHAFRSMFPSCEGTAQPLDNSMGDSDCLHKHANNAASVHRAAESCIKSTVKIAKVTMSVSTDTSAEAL

Plasmodium falciparum [3] = test: Antimicrobial activity against Plasmodium falciparum D6; type: functional, organism-based

SMILES	Activity [2]	also measured
CCCCCc1cc2c(c(O)c1C(=O)OC1(C(C)C)CC=C(C)CC1)-c1cc(C)ccc1C(C)(C)O2 (configuration not stated)	inactive	IC50 (Plasmodium falciparum [1]): 2.4 µg/mL (≈ 4.89 µM); IC50 (Candida albicans): 8.5 µg/mL (≈ 17.3 µM); IC50 (Plasmodium falciparum [3]): 2.7 µg/mL (≈ 5.5 µM)
CCCCCc1cc2c(c(O)c1C(=O)O[C@@]1(C)CC[C@@H](C(C)C)[C@@H]3C=C(C)CC[C@H]31)[C@@H]1C=C(C)CC[C@H]1C(C)(C)O2	inactive	–
CCCCCc1cc2c(c(O)c1C(=O)OC(C)(C)C1CC=C(C)CC1)[C@@H]1C=C(C)CC[C@H]1C(C)(C)O2 (some centres not stated)	inactive	–
CCCCCc1cc2c(c(O)c1C(=O)O[C@H]1C[C@H]3CC[C@]1(C)C3(C)C)[C@@H]1C=C(C)CC[C@H]1C(C)(C)O2	inactive	–
CCCCCc1cc(O)c(C/C=C(\C)CCC=C(C)C)c(O)c1C(=O)O	inactive	–
CCCCCc1cc2c(c(O)c1C(=O)O)[C@@H]1C=C(C)CC[C@H]1C(C)(C)O2	inactive	–
CCCCCc1cc(O)c(C/C=C(\C)CCC=C(C)C)c(O)c1C(=O)OC(C)(C)[C@@H]1CC[C@@]2(C)CCCC(C)=C2C1	inactive	–
CCCCCc1cc2c(c(O)c1C(=O)OC1(C(C)C)CC=C(C)CC1)[C@@H]1C=C(C)CC[C@H]1C(C)(C)O2 (some centres not stated)	inactive	–
CCCCCc1cc2c(c(O)c1C(=O)O[C@H]1C(C)(C)[C@@H]3CC[C@@]1(C)C3)[C@@H]1C=C(C)CC[C@H]1C(C)(C)O2	inactive	–
CCCCCc1cc2c(c(O)c1C(=O)OC(C)(C)[C@@H]1CC[C@@]3(C)CCCC(C)=C3C1)[C@@H]1C=C(C)CC[C@H]1C(C)(C)O2	inactive	–
CCCCCc1cc(O)c(C/C=C(\C)CCC=C(C)C)c(O)c1C(=O)O[C@@]1(C)CC[C@@H](C(C)C)[C@@H]2C=C(C)CC[C@H]21	inactive	–
CCCCCc1cc2c(c(O)c1C(=O)O[C@@H]1C(C)(C)[C@@H]3CC[C@@]1(C)C3)[C@@H]1C=C(C)CC[C@H]1C(C)(C)O2	inactive	–
CCCCCc1cc2c(c(O)c1C(=O)O)-c1cc(C)ccc1C(C)(C)O2	inactive	–
CCCCCc1cc2c(c(O)c1C(=O)O[C@H]1C[C@H]3CC[C@@]1(C)C3(C)C)[C@@H]1C=C(C)CC[C@H]1C(C)(C)O2	inactive	–
